Test results published in patent US20110039926A1 (priority 2008, published 2011).

Columns and labels:
[1] = system: patients with Major Depressive Disorders (MDD); test: multi-center, randomised, double-blinded, placebo-controlled 10 weeks study of F2695 in Major Depressive Disorders; assay type: in vivo, human
Source text: This was a multi-center, randomised, double-blinded, placebo-controlled 10 weeks study, assessing the efficacy and safety of F2695 flexible safety adapted dose in the treatment of patients with Major Depressive Disorders (MDD).
This study enrolled 563 patients who met the DSM-IV criteria for major depression with depression severity at the inclusion time assessed by HAM-D 17 score >22.
Patients were randomised to receive placebo or a flexible safety adapted dose by increasing progressively the administered doses using slow release capsules containing 25 or 50 mg of active drug (281 patients for placebo and 282 patients for F2695).
Placebo as well as F2695 were administered once a day as slow release capsules.
Slow release capsules were constituted of a plurality of minigranules each containing an active minisphere comprising a sucrose core containing F2695 as well as PVP as a binding agent; each minigranule being coated with a film of ethyl cellulose as described in EP 939 626. Placebo was constituted of the same slow release capsules of minigranules containing minispheres constituted only of a sucrose core.
The doses were administered in a dose escalation regimen during 10 days for initial titration. […]
Safety of F2695 was assessed by analysing: • frequency and intensity of adverse events as classified in the ICH guidelines (any adverse change from the subject's baseline condition, i.e. any subjective signs and symptoms, or change in a concomitant disease present at the selection visit, either considered or not related to the treatment) • suicidal risk evaluated by the MINI version 0.5 (modified Mini International Neuropsychiatric Interview) Efficiency of F2695 was assessed by: • MADRS Total score: change from baseline MMRM analysis (Full analysis data set) • MADRS Total score: change from baseline MMRM analysis (Per Protocol data set) • Responders and remitted patients compared to placebo group at Day 70 (end of the treatment period) Results from Safety

norepinephrine uptake = molecular target: T1, norepinephrine uptake (Rattus norvegicus, UniProt Q63380); settings: homogenate of rat hypothalamus; versus racemic milnacipran hydrochloride; cited from earlier work
T1 construct: from tissue; host or cells: rat hypothalamus homogenate
T1 sequence (Q63380 1-617): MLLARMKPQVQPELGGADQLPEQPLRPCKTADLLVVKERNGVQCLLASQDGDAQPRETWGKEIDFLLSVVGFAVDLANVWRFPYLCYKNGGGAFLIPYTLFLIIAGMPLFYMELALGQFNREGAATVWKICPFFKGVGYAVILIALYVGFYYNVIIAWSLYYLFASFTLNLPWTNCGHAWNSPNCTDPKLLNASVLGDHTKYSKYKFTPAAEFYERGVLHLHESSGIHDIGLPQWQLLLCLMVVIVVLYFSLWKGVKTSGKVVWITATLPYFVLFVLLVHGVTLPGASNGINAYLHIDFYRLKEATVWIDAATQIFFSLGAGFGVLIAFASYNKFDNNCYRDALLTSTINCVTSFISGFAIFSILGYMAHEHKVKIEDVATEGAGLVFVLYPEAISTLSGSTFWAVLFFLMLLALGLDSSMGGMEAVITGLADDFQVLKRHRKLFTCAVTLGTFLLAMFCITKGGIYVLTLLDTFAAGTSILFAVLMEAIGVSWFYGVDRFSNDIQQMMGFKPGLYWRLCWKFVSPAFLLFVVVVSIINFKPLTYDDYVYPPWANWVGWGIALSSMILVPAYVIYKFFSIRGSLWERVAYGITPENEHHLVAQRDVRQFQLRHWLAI

[2] = compared with other psychotropic products such as clomipramine and milnacipran; cited from earlier work
[3] = system: patients suffering from psychiatric disorders (among them MDD); settings: several trials, patients with psychiatric disorders (among them MDD); cited from earlier work

| Compound | patients presenting significant Suicidal Risk (%) ([1]; During the 6-weeks treatment and follow-up, versus 2.1% upon placebo) | patients presenting significant Suicidal Risk ([1]; During the 6-weeks treatment and follow-up, versus 6 patients upon placebo) [patient] | Suicidal Risk in patients suffering from depression ([1]; conclusion from the odds ratio obtained in a small population) | odds ratio (OR) of significant Suicidal Risk, F2695 versus placebo ([1]; logits method, confidence interval [0.0196, 1.3686]) | Insufficient response (withdrawn patients) ([1]; n = 282, number of patients) | Serious Adverse Event/Non Serious Adverse Event (withdrawn patients) ([1]; n = 282, number of patients) | Therapeutic Failure (withdrawn patients) ([1]; n = 282, number of patients) | Worsening of MDD (withdrawn patients) ([1]; n = 282, number of patients) | Significant Suicidal Risk (withdrawn patients) ([1]; n = 282, number of patients, suicidal risk evaluated by the MINI) | Insufficient response (withdrawn patients, %) ([1]; n = 282, percent of group) [%] | Serious Adverse Event/Non Serious Adverse Event (withdrawn patients, %) ([1]; n = 282, percent of group) [%] | Therapeutic Failure (withdrawn patients, %) ([1]; n = 282, percent of group) [%] | Worsening of MDD (withdrawn patients, %) ([1]; n = 282, percent of group) [%] | Significant Suicidal Risk (withdrawn patients, %) ([1]; n = 282, percent of group, suicidal risk evaluated by the MINI) [%] | efficiency in norepinephrine uptake relative to the racemate (norepinephrine uptake) | safety coefficient [2] | toxico-genomic profile [2] | odds ratio (OR) versus placebo, suicidal behaviour and ideation [3] |
| --- | --- | --- | --- | --- | --- | --- | --- | --- | --- | --- | --- | --- | --- | --- | --- | --- | --- | --- |
| CCN(CC)C(=O)[C@@]1(c2ccccc2)C[C@H]1CN.Cl [F2695, Z-(1S,2R)-2-(aminomethyl)-N,N-diethyl-1-phenyl cyclopropane carboxamide hydrochloride] | 0.4 | 1 | significantly reduced | 0.1637 | 16 | 26 | 22 | 11 | 1 | 5.7 | 9.2 | 7.8 | 3.9 | 0.4 | two | significantly better | superior |  |
| CN(C)CCC[C@@]1(c2ccc(F)cc2)OCc2cc(C#N)ccc21 [escitalopram] |  |  |  |  |  |  |  |  |  |  |  |  |  |  |  |  |  | 1.57 |
